Here are results for 6 molecules from patent publication US20220057378A1, “MICROBIAL MICROFLUIDIC BIOSENSOR” (priority 2015, published 2022).

One test has as its system E. coli MG1655/As7. As to the kind of experiment: 8-strain chip induction (fluorescence induction ratio). It counts as cell-based. To be noted: toxin at t=0, pure water at t=2 hours; arsenic 0.2 μM. From the text: (§1) An overview of the sensor can be seen in FIG. 39. In order to acquire the large amount of data required to successfully train the classifier, five replicates of the fully self-contained device prototype were built, in which the microfluidic devices are mounted and imaged using custom-designed optics as shown in some embodiments herein (Milestone 6.9). The majority of the data for this project was acquired using a novel microfluidic device capable of housing eight different bacterial strains that receive media from a shared source. […] The design was expanded to house 18 strains and we have begun taking data with this new chip to provide larger datasets to the classifier. A detailed CAD drawing of this device can be seen in FIG. 56. The 18 cell trapping regions are vacuum-loaded from 18 downstream fluidic ports. Long, serpentine channels upstream of the trapping regions serve as fluidic buffer zones to prevent the cross-contamination of strains while loading. The toxin concentration is controlled dynamically by a peristaltic pump that mixes a water/toxin combination (representing the source water stream) with a concentrated medium stock.
(§2) In each panel, the time series data for the “on-target” responding strain is plotted in bold.

A further test deals with As7 GFP construct. As to the kind of experiment: arsenic detection with the GFP construct in a microfluidic device. It counts as cell-based. As to the method:
(§3) For comparison, the arsenic concentration used for testing the GFP construct in a microfluidic device was 130 nM, or 0.13 μM. Thus, replacing GFP with Lux promises to greatly increase the sensitivity of the biosensor.
(§4) The arsenic sensor construct As7 was modified to replace the gfp gene with the luxCDABE operon, and relative induction (fluorescence or luminescence) of the two constructs was tested side-by-side using a Tecan Infinite M200 Pro plate reader (see FIG. 38). […] In contrast, the GFP construct was sensitive to arsenic only above a concentration of 26 nM. For comparison, we were able to detect an arsenic concentration of 130 nM using the GFP construct in a microfluidic device. Thus, replacing GFP with Lux promises to greatly increase the sensitivity of the biosensor.

In the next test the test system is As7 with luxCDABE operon. Nature of the test: plate reader induction of arsenic sensor, Lux reporter. The format is cell-based. To be noted: Tecan plate reader. The protocol: Luminescent reporters. […] In FIG. 8, we compare these reporters driven by an arsenic-responsive promoter, where the induction response was measured side-by-side using a Tecan plate reader.
as §3, §4

In test [1] the test system is E. coli MG1655/Cd1. Nature of the test: 8-strain chip induction (fluorescence induction ratio). It counts as cell-based. The following applies: toxin at t=0, pure water at t=2 hours; cadmium 0.05, lead 1.8 μM.
Source text: as §1, §2

In test [2] the test system is E. coli MG1655/Hg3. The description is as above. The format is cell-based. The following applies: toxin at t=0, pure water at t=2 hours; cadmium 0.05, mercury 0.2 μM.
Source text: as §1, §2

Test [3] has as its system E. coli MG1655/Cd1. As to the kind of experiment: on-chip time-lapse induction of promoter construct (GFP, gill chip). It counts as cell-based.
Experimental: (§5) For on-chip induction experiments, strains were loaded into the device and grown in M9 minimal medium with 0.4% glucose and 50 μg/ml spectinomycin (for plasmid maintenance) for 2 days in the absence of toxin. Cells were imaged under 4× brightfield and GFP fluorescence filters on an Olympus IX-81 microscope every 2 min for 6 h under these non-inducing conditions to generate a fluorescence baseline. The toxin was then introduced to induce GFP expression and the cells were imaged every 2 min for 6 h.
(§6) To determine the response to toxin induction, the raw fluorescence images before and after induction were compared. The image stacks were analyzed using a custom ImageJ script to measure the average GFP signal over time for each cell trap. Any linear trend in the uninduced fluorescence data due to cell growth was subtracted from the data. In this manner, the dynamic signal-to-noise ratio (SNR) was calculated as: (current fluorescence−mean uninduced fluorescence)/(standard deviation of uninduced fluorescence).
(§7) This microfluidic platform was then used to measure the response of several toxin responsive promoter constructs identified from the literature and synthesized by Transcriptic. […] Note that SNR values greater than 2 indicate a significant response.
The subject of another test is GFP sensor strains. Nature of the test: SVM classification of GFP sensor responses (toxin / no toxin). It counts as cell-based. To be noted: from classification accuracy and ROC curves. From the text:
Computational models to determine the threshold of detection for specific sensors based on models of experimental GFP responses. We used machine learning techniques to determine the relationships between the GFP output signal and the presence of a toxin. We have created a database containing the collected sensor response data. We have quantified the GFP threshold of detection for each sensor construct. We have constructed Receiver Operating Characteristic (ROC) curves for each sensor to achieve robust sensing. We constructed machine learning models capable of inferring the relationships between the GFP sensor responses and the presence or absence of a toxin at a given concentration. The algorithm learns these relationships from a set of training samples (GFP sensor responses) defined by the set of experimental conditions from which they were generated. The aim of the algorithm is to provide a general method capable of determining the experimental conditions associated with GFP sensor responses through the use of historical data. Specifically, we have built classification models based on Support Vector Machines (SVMs), which is one of the most popular classifiers due to its excellent performance in many contexts and its solid mathematical basis (1). For each toxin and concentration, we solved a binary classification problem in which the positive class represents the presence of the toxin in water and the negative class is associated with clean environments. Patterns were constructed with features containing GFP sensor responses at various timestamps to capture the temporal dynamics of the GFP signal. The optimal meta-parameters of the SVM classifier were determined by applying a 5-crossvalidation during the training phase (2). In order to have a reliable estimate of the performance of the model when deployed in real environments, we measured its performance over a set of samples (test patterns) not seen during the training phase. The SVM's performance was determined by the percentage of test samples correctly labeled as toxin/no toxin (classification accuracy). 80% of samples were used for training the SVM models and the remaining 20% of samples was used to evaluate their effectiveness. We generated 20 random training/test partitions to have an estimate of performance independent of the data partition.
Specifically, we have built classification models based on Support Vector Machines (SVMs), which is one of the most popular classifiers due to its excellent performance in many contexts and its solid mathematical basis. For each toxin and concentration, we solved a binary classification problem in which the positive class represents the presence of the toxin in water and the negative class is associated with clean environments. Patterns were constructed with features containing GFP sensor responses at various timestamps to capture the temporal dynamics of the GFP signal. The optimal meta-parameters of the SVM classifier were determined by applying a 5-crossvalidation during the training phase.
In order to have a reliable estimate of the performance of the model when deployed in real environments, we measured its performance over a set of samples (test patterns) not seen during the training phase. The SVM's performance was determined by the percentage of test samples correctly labeled as toxin/no toxin (classification accuracy). 80% of samples were used for training the SVM models and the remaining 20% of samples was used to evaluate their effectiveness. We generated 20 random training/test partitions based on data collected in single-strain chips (no crosstalk data) to have an estimate of performance.

The next test has as its system E. coli MG1655/Cr11. Nature of the test: 8-strain chip induction (fluorescence induction ratio). It counts as cell-based. The following applies: toxin at t=0, pure water at t=2 hours; chromium(VI) 0.5 μM.
Source text: as §1, §2

The test system of the next test is E. coli MG1655/Co7. The description is as above. It counts as cell-based. To be noted: toxin at t=0, pure water at t=2 hours; chromium(VI) 0.5 μM.
Source text: as §1, §2

Test [4] deals with E. coli MG1655/Cu1. As to the kind of experiment: on-chip time-lapse induction of promoter construct (GFP, gill chip). It counts as cell-based.
Experimental: as §5, §6, §7
The subject of test [5] is E. coli MG1655/Cu1. As to the kind of experiment: 8-strain chip induction (fluorescence induction ratio). To be noted: toxin at t=0, pure water at t=2 hours; copper 5, lead 1.8 μM. It counts as cell-based.
Source text: as §1, §2

The subject of test [6] is E. coli MG1655/Hg3.
Experimental: as §5, §6, §7

Consider `[As]` [Arsenic], for which the “GFP response of strain As7” value in the test on E. coli MG1655/As7 is given as “sensitively responding”. Further, in the test with As7 GFP construct, the “arsenic concentration detected, GFP construct in microfluidic device” value was determined as 130 nM. In addition, in the test with As7 with luxCDABE operon, the “arsenic concentration detected, Lux construct” value is listed as 0.2 nM.

Take `[Cd]` [Cadmium]: in the test with E. coli MG1655/Cd1 [1], the “GFP response of strain Cd1” value was “responding”. The “GFP response of strain Hg3” value with E. coli MG1655/Hg3 [2] was “responding”. The “SNR after 6 h” value in the test on E. coli MG1655/Cd1 [3] (0.04 μM cadmium, 6 h induction, SNR > 2 = significant response) was 17. For the same molecule, in the test on E. coli MG1655/Cd1 [3] (cadC/pcadC from S. aureus plasmid, native RBS), the “Concentration Sensed in Microfluidic Device” value (“Concentration Sensed” below) is 0.04 µM. Besides, the threshold of detection with GFP sensor strains is 0.44 µM.

As to `[Cr+6]` [Chromium(VI)], the “GFP response of strain Cr11” value in the test on E. coli MG1655/Cr11 is recorded as “responding”. Also, the “GFP response of strain Co7” value in the test on E. coli MG1655/Co7 is “responding”. In the test on GFP sensor strains, this molecule showed a threshold of detection of 1.25 µM.

Consider `[Cu]` [Copper], for which the “SNR after 6 h” value with E. coli MG1655/Cu1 [4] (25 μM copper, 6 h induction, SNR > 2 = significant response) is given as 65. Besides, the “Concentration Sensed” value in the test on E. coli MG1655/Cu1 [4] (cueR/pcopA from E. coli genome, native RBS) is 25 µM. In addition, the “GFP response of strain Cu1” value in the test with E. coli MG1655/Cu1 [5] was “sensitively responding”. In the test with GFP sensor strains, this molecule gave a threshold of detection of 5 µM.

In the case of `[Pb]` [Lead], the “GFP response of strain Cd1” value in the test on E. coli MG1655/Cd1 [1] is reported as “responding at lesser magnitudes”. Besides, the “GFP response of strain Cu1” value in the test on E. coli MG1655/Cu1 [5] was “responding at lesser magnitudes”. Moreover, the threshold of detection in the test on GFP sensor strains was 1.8 µM.

For the molecule Mercury, in the test on E. coli MG1655/Hg3 [2], the “GFP response of strain Hg3” value was “sensitively responding”. Further, the “SNR after 6 h” value with E. coli MG1655/Hg3 [6] (0.1 μM mercury, 6 h induction, SNR > 2 = significant response) is given as 20. In the test with E. coli MG1655/Hg3 [6] (merR/pmerR from E. coli plasmid, synthetic RBS), the “Concentration Sensed” value is 0.1 µM. This molecule also showed a threshold of detection in the test with GFP sensor strains of 1 µM.
